Experimental data published in patent US20240174662A1, “SMALL MOLECULE INHIBITORS OF SALT INDUCIBLE KINASES” (Janssen Biotech, Inc., priority 2021, published 2024).

Molecular target: SIK2 (Homo sapiens (Human), UniProt Q9H0K1)
Assay: SIK2 Enzymatic Assay Version 2 (High ATP)
Assay type: biochemical
Details: 3 mM ATP and 200 μM HDAC5tide final, ADP-Glo Max luminescence
Procedure: All steps were performed at room temperature. Compounds were pre-plated onto an assay plate using an Echo acoustic dispenser (Labcyte, […] or […]) at 80 nL per well. Enzyme prepared in assay buffer at 6 nM (2× final concentration) was added at 4 μL per well using the Multidrop Combi (Thermo Fisher-used for all additions in this assay) to the assay plate, spun for 1 min at 1000 rpm (Allegra 6KR Beckman Coulter centrifuge), and incubated with compound for 30 minutes. […] ADP-Glo Max Reagent (prepared and aliquoted as per manufacturer instructions) was then added at 8 μL per well, spun and incubated for 2 hours. ADP-Glo Max Detection (prepared and aliquoted as per manufacturer instructions) was added at 8 μL per well to the assay plate, which was spun and incubated for 1 hour. The plate was then read on the Pherastar (BMG Labtech) using a luminescence read. Gain was set between 2200-2500.

SIK2, sequence (Q9H0K1 whole entry, species assumed): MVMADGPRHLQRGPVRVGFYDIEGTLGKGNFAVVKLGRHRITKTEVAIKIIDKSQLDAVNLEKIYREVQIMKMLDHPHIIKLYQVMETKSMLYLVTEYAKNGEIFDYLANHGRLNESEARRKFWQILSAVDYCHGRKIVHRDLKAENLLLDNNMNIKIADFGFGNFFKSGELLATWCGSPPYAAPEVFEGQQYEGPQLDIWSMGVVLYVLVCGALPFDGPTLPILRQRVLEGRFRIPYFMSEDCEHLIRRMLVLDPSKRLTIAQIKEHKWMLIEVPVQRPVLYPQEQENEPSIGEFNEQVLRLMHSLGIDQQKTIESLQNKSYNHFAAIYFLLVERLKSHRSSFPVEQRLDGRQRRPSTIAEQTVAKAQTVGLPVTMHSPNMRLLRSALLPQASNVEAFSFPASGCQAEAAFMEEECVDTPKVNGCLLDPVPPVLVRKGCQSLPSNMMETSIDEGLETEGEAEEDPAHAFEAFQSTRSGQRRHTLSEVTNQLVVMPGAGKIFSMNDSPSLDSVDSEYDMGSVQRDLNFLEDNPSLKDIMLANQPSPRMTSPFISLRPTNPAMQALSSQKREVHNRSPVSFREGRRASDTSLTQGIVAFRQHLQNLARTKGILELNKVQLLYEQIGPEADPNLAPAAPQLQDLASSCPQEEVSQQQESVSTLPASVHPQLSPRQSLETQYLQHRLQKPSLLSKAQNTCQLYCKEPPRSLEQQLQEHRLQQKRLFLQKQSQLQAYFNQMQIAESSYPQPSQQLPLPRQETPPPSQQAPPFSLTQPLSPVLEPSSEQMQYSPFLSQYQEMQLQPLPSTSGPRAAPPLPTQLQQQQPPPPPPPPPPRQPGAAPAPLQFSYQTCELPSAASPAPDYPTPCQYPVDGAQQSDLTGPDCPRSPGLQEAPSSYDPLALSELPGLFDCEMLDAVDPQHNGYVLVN

| SMILES | IC50 [nM] |
| --- | --- |
| CO[C@@H]1CNC[C@@H]1Oc1cnn(C)c1-c1ccn2nc(NC(=O)C3CC3)cc2c1 (single isomer, unassigned) [Example 40, N-(5-(4-(((3*S,4*R)-4-methoxypyrrolidin-3-yl)oxy)-1-methyl-1H-pyrazol-5-yl)pyrazolo[1,5-a]pyridin-2-yl)cyclopropanecarboxamide] | 444 |
| CN1CC2(CCOCC2)[C@@H]1COc1cnn(C)c1-c1ccn2nc(NC(=O)C3CC3)cc2c1 (single isomer, unassigned) [Example 58, (*R)—N-(5-(1-methyl-4-((2-methyl-7-oxa-2-azaspiro[3.5]nonan-1-yl)methoxy)-1H-pyrazol-5-yl)pyrazolo[1,5-a]pyridin-2-yl)cyclopropanecarboxamide] | 57.8 |
| CN1CC2(CCOCC2)[C@H]1COc1cnn(C)c1-c1ccn2nc(NC(=O)C3CC3)cc2c1 (single isomer, unassigned) [Example 59, (*S)—N-[5-[2-methyl-4-[(2-methyl-7-oxa-2-azaspiro[3.5]nonan-3-yl)methoxy]pyrazol-3-yl]pyrazolo[1,5-a]pyridin-2-yl]cyclopropanecarboxamide] | 690 |
| CCN1CC2(CC2)[C@H]1COc1cnn(C)c1-c1ccn2nc(NC(=O)C3CC3)cc2c1 (single isomer, unassigned) [Example 67, (*S)—N-[5-[4-[(5-ethyl-5-azaspiro[2.3]hexan-6-yl)methoxy]-2-methyl-pyrazol-3-yl]pyrazolo[1,5-a]pyridin-2-yl]cyclopropanecarboxamide] | 52.1 |
| CN1CC[C@@H]1COc1cnn(C)c1-c1ccn2nc(NC(=O)[C@H]3C[C@H]3c3ccccc3)cc2c1 (single isomer, unassigned) [Example 159, (1*S,2*R)—N-(5-(1-methyl-4-(((R)-1-methylazetidin-2-yl)methoxy)-1H-pyrazol-5-yl)pyrazolo[1,5-a]pyridin-2-yl)-2-phenylcyclopropane-1-carboxamide] | 24.2 |

Compounds with a lower IC50, results first:

| IC50 [nM] | SMILES |
| --- | --- |
| 19.2 | Cc1cc(Nc2cc3cc(-c4c(OC[C@@H]5CC(=O)N(C)C5)cnn4C)ccn3n2)nc(C)n1 (single isomer, unassigned) [Example 35, *R-4-[[5-[2-[(2,6-dimethylpyrimidin-4-yl)amino]pyrazolo[1,5-a]pyridin-5-yl]-1-methyl-pyrazol-4-yl]oxymethyl]-1-methyl-pyrrolidin-2-one] |
| 14.6 | C[C@@H]1[C@@H](COc2cnn(C)c2-c2ccn3nc(NC(=O)C4CC4)cc3c2)CN1C (single isomer, unassigned) [Example 41, trans-N-(5-(4-(((2*R,3*S)-1,2-dimethylazetidin-3-yl)methoxy)-1-methyl-1H-pyrazol-5-yl)pyrazolo[1,5-a]pyridin-2-yl)cyclopropanecarboxamide] |
| 11.1 | CN1CC[C@@H]1COc1cnn(C)c1-c1ccn2nc(NC(=O)[C@@H]3C[C@H]3c3ccccc3)cc2c1 (single isomer, unassigned) [Example 157, (1*R,2*R)—N-[5-[2-methyl-4-[((R)1-methylazetidin-2-yl)methoxy]pyrazol-3-yl]pyrazolo[1,5-a]pyridin-2-yl]-2-phenyl-cyclopropanecarboxamide] |
| 9.2 | Cc1cc(Nc2cc3cc(-c4c(OC[C@@H]5CCN(C)C5=O)cnn4C)ccn3n2)nc(C)n1 (single isomer, unassigned) [Example 34, (*S)-3-[[5-[2-[(2,6-dimethylpyrimidin-4-yl)amino]pyrazolo[1,5-a]pyridin-5-yl]-1-methyl-pyrazol-4-yl]oxymethyl]-1-methyl-pyrrolidin-2-one] |
| 3.1 | CN1CC[C@@H]1COc1cnn(C)c1-c1ccn2nc(NC(=O)[C@H]3C[C@@H]3c3ccccc3)cc2c1 (single isomer, unassigned) [Example 156, (1*S, 2*S)—N-[5-[2-methyl-4-[((R)-1-methylazetidin-2-yl)methoxy]pyrazol-3-yl]pyrazolo[1,5-a]pyridin-2-yl]-2-phenyl-cyclopropanecarboxamide] |
